The values that follow come from US20260138976A1 (Hoffmann-La Roche Inc., priority 2022, published 2026).

Experiment [1] concerns the target T1, DGKα (hDGKalpha(1-735)-N-His) (Homo sapiens, UniProt P23743).
T1 construct: hDGKalpha(1-735)-N-His; His (N); made in house; host or cells: Sf21 insect cells (baculovirus)
The experiment is described as follows: In vitro DGK inhibition assay, DGKalpha ADP Glo (in house). It counts as biochemical. The settings on record: 4 nM DGKα, 25 μM ATP, 125 uM DLG in liposomes, 1 hour reaction. In a few lines: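 ADP-Glo luminescence measured ADP formed over 1 h by Sf21-expressed full-length human enzymes: DGKα at 4 nM with 25 µM ATP, DGKζ at 2 nM with 50 µM ATP, both on 125 µM DLG in PS/PC liposomes. Dose–response used 11 threefold dilutions at 2% final DMSO.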

In another experiment the test system is primary human T-cells. The experiment is described as follows: Proliferation assay (5 days, CellTiter-Glo, CD3-stimulated T-cells). It counts as cell-based. The settings on record: for Emax proliferation (% activation): CD3 condition, normalised to DMSO (neutral) and 20 μM reference compound A1 = 100%; for EC50: Homo sapiens, T-cell, 120 h, CD3-stimulated primary human T-cells, 5 days, CellTiter-Glo, fitted sigmoidal curve, read-out: Tcell Proliferation CD3 EC50. In a few lines:
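Proliferation read-out: ATP luminescence (CellTiter-Glo 2.0) at day 5 in expanded primary human T-cells on CD3 antibody-coated plates, with PBS-only plates as a counter screen. Compounds in 5–6 pt series (factor 3.333, top 20 or 10 μM final). Values are normalized to DMSO (neutral) and 20 μM reference A1 (100%), from sigmoidal fits.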
(Cellular ATP, detected with luciferase, serves as a proxy for viable cell number.)

T1 sequence (P23743 whole entry): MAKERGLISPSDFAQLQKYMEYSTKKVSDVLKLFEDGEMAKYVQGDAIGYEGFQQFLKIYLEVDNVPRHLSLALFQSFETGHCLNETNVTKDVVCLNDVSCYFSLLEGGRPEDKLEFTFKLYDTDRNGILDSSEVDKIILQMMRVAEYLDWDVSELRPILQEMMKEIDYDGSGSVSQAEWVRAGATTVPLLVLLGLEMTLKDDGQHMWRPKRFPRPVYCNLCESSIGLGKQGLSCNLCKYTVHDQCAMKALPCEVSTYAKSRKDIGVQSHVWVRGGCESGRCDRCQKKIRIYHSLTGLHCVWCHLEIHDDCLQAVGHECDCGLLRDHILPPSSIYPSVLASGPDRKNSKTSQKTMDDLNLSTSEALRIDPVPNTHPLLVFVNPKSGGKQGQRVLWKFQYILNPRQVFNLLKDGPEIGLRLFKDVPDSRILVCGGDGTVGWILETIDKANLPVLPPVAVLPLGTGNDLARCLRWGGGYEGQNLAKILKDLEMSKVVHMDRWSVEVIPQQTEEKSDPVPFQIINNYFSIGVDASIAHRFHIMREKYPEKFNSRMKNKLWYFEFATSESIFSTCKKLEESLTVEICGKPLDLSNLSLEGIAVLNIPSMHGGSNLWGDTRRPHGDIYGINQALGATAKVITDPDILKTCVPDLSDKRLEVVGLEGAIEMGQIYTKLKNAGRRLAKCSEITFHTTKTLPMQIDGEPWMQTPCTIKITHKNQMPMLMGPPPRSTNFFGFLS

With `Cn1ccc(-c2ccc(CN3C(=O)[C@@H](N)CS(=O)(=O)c4cc(F)c(-c5nnc(C(C)(C)C)o5)cc43)cc2)n1` [Example 1, (3R)-3-amino-7-(5-tert-butyl-1,3,4-oxadiazol-2-yl)-8-fluoro-5-[[4-(1-methylpyrazol-3-yl)phenyl]methyl]-1,1-dioxo-2,3-dihydro-1λ^6,5-benzothiazepin-4-one], half-maximal inhibition in experiment [1] (IC50) required 2360 nM. In the experiment with primary human T-cells, the “Emax proliferation (% activation)” value is recorded as 73 % activation and the EC50 was found to be 843 nM.

`Cc1noc(-c2ccc(CN3C(=O)[C@@H](N)CS(=O)(=O)c4cc(F)c(-c5nnc(C(C)(C)C)o5)cc43)cc2)n1` [Example 2]: the midpoint of inhibition in experiment [1], the IC50, lay at 613 nM. Also, in the experiment on primary human T-cells, the “Emax proliferation (% activation)” value is 143 % activation and the EC50 came out at 296 nM.

Take `CC(C)Nc1nnc(-c2cc3c(cc2F)S(=O)(=O)C[C@H](N)C(=O)N3Cc2ccc(-c3noc(C(F)(F)F)n3)cc2)o1` [Example 6, (3R)-3-amino-8-fluoro-7-[5-(isopropylamino)-1,3,4-oxadiazol-2-yl]-1,1-dioxo-5-[[4-[5-(trifluoromethyl)-1,2,4-oxadiazol-3-yl]phenyl]methyl]-2,3-dihydro-1λ^6,5-benzothiazepin-4-one]: the IC50 in experiment [1] worked out at 1870 nM. Further, in the experiment on primary human T-cells, the “Emax proliferation (% activation)” value amounted to 109 % activation and the EC50 came out at 765 nM.

`CC(C)(C)c1nc(-c2cc3c(cc2F)S(=O)(=O)C[C@H](N)C(=O)N3Cc2ccc(-c3ccc(CO)cc3)nc2)no1` [Example 7, (3R)-3-amino-7-(5-tert-butyl-1,2,4-oxadiazol-3-yl)-8-fluoro-5-[[6-[4-(hydroxymethyl)phenyl]-3-pyridyl]methyl]-1,1-dioxo-2,3-dihydro-1λ^6,5-benzothiazepin-4-one] showed an IC50 in experiment [1] of more than 62500 nM. Also, in the experiment with primary human T-cells, the “Emax proliferation (% activation)” value turned out to be 97 % activation and the EC50 worked out at 3520 nM.

`N[C@H]1CS(=O)(=O)c2cc(F)c(-c3noc(N4CCCC4)n3)cc2N(Cc2ccc(-c3noc(C(F)(F)F)n3)nc2)C1=O` [Example 15, (3R)-3-amino-8-fluoro-1,1-dioxo-7-(5-pyrrolidin-1-yl-1,2,4-oxadiazol-3-yl)-5-[[6-[5-(trifluoromethyl)-1,2,4-oxadiazol-3-yl]-3-pyridyl]methyl]-2,3-dihydro-1λ^6,5-benzothiazepin-4-one] yielded an IC50 in experiment [1] of 40300 nM. In the experiment with primary human T-cells, the “Emax proliferation (% activation)” value was 64 % activation and the EC50 came out at 3200 nM.

As for `Cc1noc(-c2ccc(CN3C(=O)[C@@H](N)CS(=O)(=O)c4ccc(-c5nnc(C(C)(C)C)o5)cc43)cc2)n1` [Example 20, (3R)-3-amino-7-(5-tert-butyl-1,3,4-oxadiazol-2-yl)-5-[[4-(3-methyl-1,2,4-oxadiazol-5-yl)phenyl]methyl]-1,1-dioxo-2,3-dihydro-1λ^6,5-benzothiazepin-4-one], 4960 nM corresponded to half-maximal inhibition in experiment [1] (IC50). In addition, in the experiment with primary human T-cells, the “Emax proliferation (% activation)” value came out at 82 % activation and the EC50 came out at 2380 nM.

In experiment [1], `Cn1ccc(-c2ccc(CN3C(=O)[C@@H](N)CS(=O)(=O)c4ccc(-c5nnc(C(C)(C)C)o5)cc43)cc2)n1` [Example 21] gave a 50% inhibitory concentration (IC50) of 16800 nM. Further, in the experiment on primary human T-cells, the “Emax proliferation (% activation)” value came to 63 % activation and the EC50 was 7060 nM.

Turning to `CC(C)(C)c1nnc(-c2ccc3c(c2)N(Cc2ccc(-c4noc(C(F)(F)F)n4)cc2)C(=O)[C@@H](N)CS3(=O)=O)o1` [Example 23, (3R)-3-amino-7-(5-tert-butyl-1,3,4-oxadiazol-2-yl)-1,1-dioxo-5-[[4-[5-(trifluoromethyl)-1,2,4-oxadiazol-3-yl]phenyl]methyl]-2,3-dihydro-1λ^6,5-benzothiazepin-4-one], in experiment [1], half-maximal inhibition (IC50) was put at 1530 nM. Besides, in the experiment with primary human T-cells, the “Emax proliferation (% activation)” value is given as 136 % activation and the EC50 came to 316 nM.

For the compound `CC(C)(C)c1nnc(-c2ccc3c(c2)N(Cc2ccc(-n4cc(C(F)(F)F)cn4)cc2)C(=O)[C@@H](N)CS3(=O)=O)o1` [Example 25, (3R)-3-amino-7-(5-tert-butyl-1,3,4-oxadiazol-2-yl)-1,1-dioxo-5-[[4-[4-(trifluoromethyl)pyrazol-1-yl]phenyl]methyl]-2,3-dihydro-1λ^6,5-benzothiazepin-4-one], in experiment [1], the concentration for half-maximal inhibition (IC50) was 3540 nM. In the experiment on primary human T-cells, the “Emax proliferation (% activation)” value is given as 131 % activation and the EC50 was 2930 nM.

For the compound `CC(C)(C)c1nnc(-c2ccc3c(c2)N(Cc2ccc(-n4ccc(C(F)(F)F)n4)cc2)C(=O)[C@@H](N)CS3(=O)=O)o1` [Example 27], it took 2950 nM to reach half-maximal inhibition in experiment [1] (IC50). In the experiment with primary human T-cells, the “Emax proliferation (% activation)” value was 212 % activation and the EC50 is 252 nM.

The compound `CC(C)(C)c1nnc(-c2ccc3c(c2)N(Cc2ccc(-n4cnc(C(F)(F)F)c4)cc2)C(=O)[C@@H](N)CS3(=O)=O)o1` [Example 28, (3R)-3-amino-7-(5-tert-butyl-1,3,4-oxadiazol-2-yl)-1,1-dioxo-5-[[4-[4-(trifluoromethyl)imidazol-1-yl]phenyl]methyl]-2,3-dihydro-1λ^6,5-benzothiazepin-4-one] yielded an IC50 in experiment [1] of 37300 nM. In the experiment with primary human T-cells, the “Emax proliferation (% activation)” value came to 108 % activation and the EC50 was 3510 nM.

As for `CC(N)(c1nnc(-c2ccc3c(c2)N(Cc2ccc(-c4noc(CC(F)(F)F)n4)cc2)C(=O)[C@@H](N)CS3(=O)=O)o1)C(F)(F)F` (stereo partly drawn) [Example 33, (3R)-3-amino-7-[5-(1-amino-2,2,2-trifluoro-1-methyl-ethyl)-1,3,4-oxadiazol-2-yl]-1,1-dioxo-5-[[4-[5-(2,2,2-trifluoroethyl)-1,2,4-oxadiazol-3-yl]phenyl]methyl]-2,3-dihydro-1λ^6,5-benzothiazepin-4-one], the half-inhibitory concentration (IC50) in experiment [1] was found to be 23800 nM. In the experiment with primary human T-cells, the “Emax proliferation (% activation)” value stood at 105 % activation and the EC50 amounted to 3190 nM.

For `CC(C)(C#N)c1nnc(-c2ccc3c(c2)N(Cc2ccc(-c4ccc(C(F)(F)F)cc4)cc2)C(=O)[C@@H](N)CS3(=O)=O)o1` [Example 46], the IC50 in experiment [1] was 16200 nM. In the experiment on primary human T-cells, the “Emax proliferation (% activation)” value came to 94 % activation and the EC50 stood at 116 nM.

As for `CC(C)(C#N)c1nnc(-c2ccc3c(c2)N(Cc2ccc(-c4ccc(C(F)(F)F)cn4)cc2)C(=O)[C@@H](N)CS3(=O)=O)o1` [Example 47], it took 7280 nM to reach half-maximal inhibition in experiment [1] (IC50). Further, in the experiment with primary human T-cells, the “Emax proliferation (% activation)” value stood at 159 % activation and the EC50 was found to be 459 nM.

Regarding `CC1(c2nnc(-c3ccc4c(c3)N(Cc3ccc(-c5ccc(C(F)(F)F)cc5)cc3)C(=O)[C@@H](N)CS4(=O)=O)o2)CCO1` (stereo partly drawn) [Example 48, (3R)-3-amino-7-[5-(2-methyloxetan-2-yl)-1,3,4-oxadiazol-2-yl]-1,1-dioxo-5-[[4-[4-(trifluoromethyl)phenyl]phenyl]methyl]-2,3-dihydro-1lambda6,5-benzothiazepin-4-one], the IC50 in experiment [1] is more than 62500 nM. In addition, in the experiment with primary human T-cells, the “Emax proliferation (% activation)” value is reported as 139 % activation and the EC50 is 321 nM.

Compound `C[C@@](N)(c1nnc(-c2ccc3c(c2)N(Cc2ccc(-c4noc(C(F)(F)F)n4)cc2)C(=O)[C@@H](N)CS3(=O)=O)o1)C(F)(F)F` [Example 52, (3R)-3-amino-7-[5-[(1R)-1-amino-2,2,2-trifluoro-1-methyl-ethyl]-1,3,4-oxadiazol-2-yl]-1,1-dioxo-5-[[4-[5-(trifluoromethyl)-1,2,4-oxadiazol-3-yl]phenyl]methyl]-2,3-dihydro-1λ^6,5-benzothiazepin-4-one] registered an IC50 in experiment [1] of 25200 nM. Further, in the experiment on primary human T-cells, the “Emax proliferation (% activation)” value was found to be 126 % activation and the EC50 came to 196 nM.

`C[C@](N)(c1nnc(-c2ccc3c(c2)N(Cc2ccc(-c4noc(C(F)(F)F)n4)cc2)C(=O)[C@@H](N)CS3(=O)=O)o1)C(F)(F)F` [Example 53, (3R)-3-amino-7-[5-[(1S)-1-amino-2,2,2-trifluoro-1-methyl-ethyl]-1,3,4-oxadiazol-2-yl]-1,1-dioxo-5-[[4-[5-(trifluoromethyl)-1,2,4-oxadiazol-3-yl]phenyl]methyl]-2,3-dihydro-1λ^6,5-benzothiazepin-4-one]: the IC50 in experiment [1] came to 43400 nM. Besides, in the experiment with primary human T-cells, the “Emax proliferation (% activation)” value is reported as 120 % activation and the EC50 amounted to 2220 nM.

On to `N[C@H]1CS(=O)(=O)c2ccc(-c3nnc(C4(CO)CCCO4)o3)cc2N(Cc2ccc(-c3ccc(C(F)(F)F)cc3)cc2)C1=O` (stereo partly drawn) [Example 55], for which, in experiment [1], the IC50 is more than 62500 nM. For the same compound, in the experiment with primary human T-cells, the “Emax proliferation (% activation)” value amounted to 59 % activation and the EC50 was 1090 nM.

Consider `COC(=O)N1CC2CC(c3nnc(-c4ccc5c(c4)N(Cc4ccc(-c6ccc(OC)cc6)cc4)C(=O)[C@@H](N)CS5(=O)=O)o3)(C2)C1` [Example 59, methyl 1-[5-[(3R)-3-amino-5-[[4-(4-methoxyphenyl)phenyl]methyl]-1,1,4-trioxo-2,3-dihydro-1λ^6,5-benzothiazepin-7-yl]-1,3,4-oxadiazol-2-yl]-3-azabicyclo[3.1.1]heptane-3-carboxylate], for which half-maximal inhibition in experiment [1] (IC50) required 3040 nM. Besides, in the experiment with primary human T-cells, the “Emax proliferation (% activation)” value came to 103 % activation and the EC50 is 29 nM.

For orientation: IC50 means the point on the concentration scale where inhibition reaches its midpoint.
